From patent US20250368651A1 (priority 2022, published 2025)
Like-named read-outs stand apart in the source and are kept apart here.

How the values were obtained:
RNA Seq8 UGAAGGAAGUU = test: FP binding assay, RNA Seq8; conditions: Seq 8 UGAAGGAAGUU; 0.5 μM SMN-C2
Description: (§1) All synthetic DNA and RNA oligomers were purchased from Integrated DNA Technologies and reconstituted in nuclease-free water (Invitrogen #AM9932) at 1 mM. The concentration of the oligonucleotides at ˜0.1 mM was calibrated with the A260 value measured by a NanoDrop ND-1000 (Thermo, Waltham, MA, USA) and the predicted extinction coefficient (http://www.oligoevaluator.com) using Lamber-Beer's Law. The risdiplam analogues (1 mM in DMSO) were diluted in 2× assay buffer (40 mM HEPES, 200 mM NaCl for RNA; 40 mM HEPES, 200 mM NaCl, 1 mM MgCl2 for DNA) to make a 1 μM 2× working solution.
(§2) A 1:2 dilution series (8 points) of each oligonucleotide was prepared in 20-30 μL water to desired concentrations (i.e., 1-128 μM). […] For fluorescence polarization measurement, 20 μL of the above 1× working solution was transferred into a 384-well, black, F-bottom microplates (Greiner Bio-One) in duplicates or triplicates. The plate was equilibrated at room temperature for 5 min before being read using a microplate reader (SYNERGY H1, BioTek; Excitation/Emission=360/460 nm) at 25° C. […] The mixture was then transferred into a microplate (20 μL each well) in duplicates for fluorescence polarization readout. The experimental data were analyzed using Prism 8 software (Graphpad Software, San Diego, CA, USA).

RNA Seq10 UAAAGGAAGGU = test: FP binding assay, RNA Seq10; conditions: Seq 10 UAAAGGAAGGU; 0.5 μM SMN-C2
Description: as §1, §2

SMN2 exon 7 splicing = test: Cell-based SMN2 splicing assay in 293T cells (minigene); parameters: species or system human; conditions: Homo sapiens, HEK-293T
DNA S4 […] = test: FP binding assay, 18-nt DNA S4
Description: as §1, §2

[1] = target: DNA Seq10 (UAAAGGAAGGU as deoxyribonucleotides); test: FP binding assay, DNA Seq10; conditions: Seq 10; 0.5 μM SMN-C2
Description: as §1, §2

[2] = system: dsDNA formed by annealing Seq6 and its reverse complement, Seq6_RC; test: ITC, dsDNA (annealed Seq6 and Seq6_RC); format: binding; conditions: dsDNA of Seq6 and Seq6_RC
Description: The figures are representation of three independent experiments.
Isothermal calorimetric titrations were carried out on a Malvern Analytical MicroCal PEAQ-ITC at 25° C. The DNA (see above for the calibration procedure) and the SMN-C2 water solutions containing the desired amount of the materials were freeze-dried overnight (Labconco FreeZone 4.5 Liter Benchtop Freeze Dry System) and then re-suspended in appropriate volume of buffer containing 5% DMSO, 100 mM NaCl and 30 mM MES buffer at pH 6.0 (e.g., 350 μL for DNA Seq6, 80 μL for SMN-C2). […] The analysis was performed using the instrument's MicroCal PEAQ-ITC Analysis Software (Malvern Analytical). The ITC data was fit using the One Set of Sites mode to calculate the dissociate constant (Kd), binding stoichiometry, and the changes in enthalpy and Gibbs free energy. In differential power (DP) trace, the baseline was subtracted for better visualization, which has no impact on calculations.

[3] = target: DNA Seq6 (UGAAGGAAGGU as deoxyribonucleotides); test: FP binding assay, DNA Seq6
Description: as §1
A 1:2 dilution series (8 points) of each oligonucleotide was prepared in 20-30 μL water to desired concentrations (i.e., 1-128 μM). 20-30 μL 2× working solution containing the 2× assay buffer and the small-molecule ligand was added to each oligonucleotide sample in 1:1 (v/v) and mixed by pipetting for 4 times. For fluorescence polarization measurement, 20 μL of the above 1× working solution was transferred into a 384-well, black, F-bottom microplates (Greiner Bio-One) in duplicates or triplicates. The plate was equilibrated at room temperature for 5 min before being read using a microplate reader (SYNERGY H1, BioTek; Excitation/Emission=360/460 nm) at 25° C. For compound SMN-C5, a competitive binding assay was employed to measure an apparent Kd. SMN-C5 was 1:2 serial diluted for 10 concentration points starting at 750 μM in DMSO. A mixture of SMN-C2 (0.5 μM) and DNA Seq6 (25 μM) in 1× assay buffer was prepared and incubated at room temperature for 10 minutes. 3 μL of SMN-C5 solution at each concentration was added to a 42 μL SMN-C2/DNA Seq6 mixture and incubated at room temperature for 10 minutes. The mixture was then transferred into a microplate (20 μL each well) in duplicates for fluorescence polarization readout. The experimental data were analyzed using Prism 8 software (Graphpad Software, San Diego, CA, USA).

[4] = target: DNA Seq7 (UUAAGGAAGGU as deoxyribonucleotides); test: FP binding assay, DNA Seq7; conditions: Seq 7; 0.5 μM SMN-C2
Description: as §1, §2

DNA S10 […] = test: FP binding assay, 18-nt DNA S10
Description: as §1, §2

DNA S19 […] = test: FP binding assay, 18-nt DNA S19
Description: as §1, §2

RNA Seq7 UUAAGGAAGGU = test: FP binding assay, RNA Seq7; conditions: Seq 7 UUAAGGAAGGU; 0.5 μM SMN-C2
Description: as §1, §2

DNA S15 […] = test: FP binding assay, 18-nt DNA S15
Description: as §1, §2

SMILES: CCN1CCN(c2ccc3cc(-c4cn5cc(C)nc(C)c5n4)c(=O)oc3c2)C[C@@H]1C [SMN-C2, (S)-3-(6,8-dimethylimidazo[1,2-a]pyrazin-2-yl)-7-(4-ethyl-3-methylpiperazin-1-yl)-2H-chromen-2-one]
- Kd (RNA Seq8 UGAAGGAAGUU): > 100 µM
- Kd (RNA Seq10 UAAAGGAAGGU): > 100 µM
- EC50 (SMN2 exon 7 splicing; Table 3, read-out: SMN2 Splicing EC50): 0.0635 ± 0.0296 µM
- EC50 (SMN2 exon 7 splicing; cell-based SMN2 splicing assay in 293T cells, read-out: SMN2 EC50): 0.26 ± 0.13 µM
- Kd (DNA S4 […]): > 50 µM
- Kd [1]: > 100 µM
- binding to dsDNA (ITC) [2]: abrogated most of the binding affinity
- Kd ([3]; Seq 6, 0.5 μM SMN-C2, range = 95% CI, read-out: DNA Kd): 3.1 ± 0.7 µM
- decrease in binding affinity by any single-point mutation of the core sequence ([3]; Seq10-17 vs Seq6): ≥ 5 fold
- Kd [4]: > 100 µM
- Kd (DNA S10 […]): 26.4 ± 2.2 µM
- Kd (DNA S19 […]): 21 ± 1.1 µM
- Kd (RNA Seq7 UUAAGGAAGGU): 42.3 ± 13.3 µM
- Kd (DNA S15 […]): 31.4 ± 4 µM
